Legend:
[1] = system: dopaminergic neurons in neuron-glia co-cultures; test: [3H]DA uptake in Aβ-treated neuron-glia cultures; type: cell-based, rat; conditions: micro- and femtomolar DM, 30 min pretreatment, Aβ 0.75 μM
Description: Neuron-glia co-cultures were prepared and treated with vehicle alone, Aβ 0.75 μM alone, or DM 30 min prior to treatment with Aβ0.75 μM similar to Example 1. Amyloid-β peptide (25-35 and 1-42) was obtained from American Peptide Co., Inc (Sunnyvale, Calif.). Neurotoxicity was assessed by DA uptake as in Example 1. Results are expressed as a percentage of the control cultures and are the mean±S.E.M. of three to eight individual experiments with triplicates in each experiment. ##, P<0.01 compared with the control culture; *, P<0.05 compared with Aβ-treated culture.

iROS = iROS production in neuron-glia cultures of PHOX+/+ and PHOX−/− mice; type: cell-based, mouse; conditions: DM 10^−14 M
Description: The neuron-glia cultures were treated with vehicle, LPS 10 ng/ml alone, and DM (10^−14 M) 30 min pretreatment followed by LPS treatment as in Example 1. Neurotoxicity was assessed by DA uptake as described in Example 1. TNFα production was measured by ELISA and iROS was determined by DCFDA as in Example 5. Results are expressed as a percentage of the control culture in FIG. 7A, pg/ml in FIG. 7B, and difference from control in FIG. 7C, respectively, and are the mean±S.E.M. of five individual experiments with triplicates in each experiment. *, P<0.05 compared with LPS culture.

CD-1 mice given LPS/GalN [2] = test: Survival in LPS/GalN endotoxic shock; type: in vivo, mouse; conditions: for Rate of survival % / No. of animals survived: 12 hrs; for Rate of survival: 30 min before and 2, 4 hr after LPS/GalN; for Rate of survival / Survived animal: 12 hours
Description: Animal studies were performed in accordance with National Institutes of Health Guidelines and with the approval of the Institute's Animal Care and Use Committee, and followed NIH guidelines. Male, CD-1 mice (6-week-old) were purchased from Charles River laboratories, fed on a standard diet and with tap water ad libitum for two weeks. Environmental conditions were standardized, including a room temperature of 21° C. and 12 hours artificial lighting. Mice were fasted 12 hrs before use.
Endotoxic shock was induced in the mice by administering a single intraperitoneal dose of lipopolysaccharide/D-(+/−)Glactosomine (Sigma, St. Louis, Mo.) (LPS/GalN) (20 μg/700 mg/kg) in saline. To test whether DM has protective effects on septic shock, varying concentrations (6.25, 12.5 and 25 mg/kg) of DM were injected into the mice subcutaneously 30 min before, and 2, and 4 hr after the injection of LPS/GalN. Control mice received the same amount of saline. At different time points, the animals were killed, and serum and liver samples were collected.
To examine the therapeutic effects of DM, animals were treated with […] DM at 30 min before LPS/GalN injection, and 30, 60 and 120 min after LPS/GalN administration. Serum ALT was measured to evaluate the therapeutic effects of the DM. Survival rate was evaluated within 12 hours after endotoxin administration.
Endotoxic shock were induced in mice in the same was as Example 16. The mice were given LPS/GalN (20 μg/700 mg/kg, ip) with or without the administration of DM (10 mg/kg, 1 μg/kg and 100 pg/kg, s.c.) 30 min before LPS/GalN. The survival rate of the animals was evaluated 12 hrs after LPS/GalN treatment.

CD-1 mice given LPS/GalN [3] = test: Liver histology in LPS/GalN endotoxic shock; type: in vivo, mouse
Description: Serum alanine aminotransferase (ALT) activity was assayed as a marker of hepatocellular death using a commercially available kit (Infinite ALT, Sigma, St. Louis, Mo.). A portion of the liver was fixed in 10% neutral formalin, processed by standard histological techniques, stained with hematoxylin and eosin, and examined for morphological evidence of liver injury.
Sections of the mice livers were stained with hematoxylin and eosin, and photomicrographs were taken at 100× magnification.

TNFα = test: Serum and liver TNFα (ELISA) in LPS/GalN endotoxic shock; type: in vivo, mouse
Description: Blood was collected from the eye while the mice were anesthetized, and then perfused with saline. Perfused liver samples were collected and frozen at −70° C. The blood samples were stored at 4° C. overnight and then centrifuged at 1500×g at 4° C. for 15 min. Serum was collected and stored at −70° C. for ALT, and TNFα ELISA assays. The frozen liver samples were homogenized in 10 mg/ml cold lysis buffer (20 mM Tris, 0.25 M sucrose, 2 mM EDTA, 10 mM EGTA, 1% Triton X-100 and protein cocktail inhibitor), and then centrifuged at 35,000×g for 40 min. The supernatant was then collected for protein assay using BCA Protein Assay Reagent Kit (Prod#23227, PIERCE), and ELISA for TNFα.
The levels of TNFα in the serum and liver were determined as in Example 1.
TNFα, an important factor that plays an important role in sepsis, was studied as a mechanism of the protective effect of DM in LPS/GalN-challenge mice. DM (12.5 mg/kg, […].) was administered to mice, followed by LPS/GalN challenge 30 min later. Serum and liver TNFα level was assessed using ELISA at the indicated time points.

primary rat microglia = test: Microglia number (CyQUANT) in microglia-enriched cultures; type: cell-based
Description: Primary rat microglia-enriched cultures were used to determine if VPA treatment affected the total number of microglia. Microglia cell number was determined as follows. Primary microglia-enriched cultures were prepared from the whole brains of 1-day-old rats as described previously. After one day in vitro were treated with the indicated concentrations of VPA (0.05, 0.1, 0.2, 0.4, 0.6, 0.8, 1.0, or 1.2 mM) for 48 h, or with 0.6 mM VPA for different times (6, 12, 24 or 48 h). […] The total number of microglia was counted by using the CyQUANT cell proliferation assay kit (Molecular Probes, Inc.).

[4] = DM 12.5 mg/kg 30 min before LPS/GalN, 1.5 and 2 hours

COc1ccc2c(c1)[C@@]13CCCC[C@H]1[C@@H](C2)N(C)CC3 [DM, d-3-methoxy-N-methylmorphinan]
Aβ-induced neurotoxicity (DA uptake) [1]: neuroprotective effect
LPS-induced iROS production (iROS; PHOX+/+ mice): significantly inhibited iROS production
LPS-induced iROS production (iROS; PHOX−/− mice): failed to show any effect
Rate of survival % (CD-1 mice given LPS/GalN [2]; DM 100 pg/kg s.c. 30 min before LPS/GalN): 76.6%
No. of animals survived (CD-1 mice given LPS/GalN [2]; DM 100 pg/kg s.c., 47 animals in group): 36
Rate of survival % (CD-1 mice given LPS/GalN [2]; DM 1 ug/kg s.c. 30 min before LPS/GalN): 58.8%
No. of animals survived (CD-1 mice given LPS/GalN [2]; DM 1 ug/kg s.c., 17 animals in group): 10
Rate of survival (CD-1 mice given LPS/GalN [2]; DM 6.25 mg/kg): 67%
Rate of survival (CD-1 mice given LPS/GalN [2]; DM 6.25 mg/kg, listed as Dextromethorphan): 66.6%
Survived animal (CD-1 mice given LPS/GalN [2]; DM 6.25 mg/kg, n = 12): 8
Rate of survival % (CD-1 mice given LPS/GalN [2]; DM 10 mg/kg s.c. 30 min before LPS/GalN): 84.6%
No. of animals survived (CD-1 mice given LPS/GalN [2]; DM 10 mg/kg s.c., 26 animals in group): 22
Rate of survival (CD-1 mice given LPS/GalN [2]; DM 12.5 mg/kg): about 90%
Rate of survival (CD-1 mice given LPS/GalN [2]; DM 12.5 mg/kg, listed as Dextromethorphan): 89.3%
Survived animal (CD-1 mice given LPS/GalN [2]; DM 12.5 mg/kg, n = 56): 50
Rate of survival (CD-1 mice given LPS/GalN [2]; DM 25 mg/kg): about 90%
Rate of survival (CD-1 mice given LPS/GalN [2]; DM 25 mg/kg, listed as Dextromethorphan): 91.6%
Survived animal (CD-1 mice given LPS/GalN [2]; DM 25 mg/kg, n = 12): 11
protection against LPS/GalN-induced lethal shock (CD-1 mice given LPS/GalN [2]; DM 30 min post LPS/GalN challenge): also observed
liver histology (hematoxylin and eosin) (CD-1 mice given LPS/GalN [3]; 100 pg/kg DM plus LPS/GalN): cell death is mild
liver histology (hematoxylin and eosin) (CD-1 mice given LPS/GalN [3]; 1 μg/kg DM plus LPS/GalN): hepatic congestion and cell death are obvious
liver histology (hematoxylin and eosin) (CD-1 mice given LPS/GalN [3]; 10 mg/kg DM plus LPS/GalN): hepatic congestion and cell death are mild
liver pathological alterations (necrosis, apoptosis, swelling) (CD-1 mice given LPS/GalN [3]; DM treatments, 12 hours after LPS/GalN): dramatically ameliorated
liver TNFα level (TNFα; [4]): significantly decreased TNFα level
serum TNFα level (TNFα; [4]): significantly decreased TNFα level
TNFα level (TNFα; DM 30 min post LPS/GalN (data not shown)): suppression of TNFα level was also found

CCCC(CCC)C(=O)O [VPA, Valproic acid]
number of microglia, concentration dependence (primary rat microglia; VPA 0.2 mM to 1.2 mM, 48 h): robust decrease in microglia number
number of microglia, time course (primary rat microglia; VPA 0.6 mM, 6-48 h, significant effect at 24 h and 48 h): time-dependently decreased the number of microglia
loss of microglia (primary rat microglia; VPA 0.8 mM, 48 h): about 80%
